Experimental data from patent US20240197728A1, “METHODS AND PHARMACEUTICAL COMPOSITIONS FOR TREATING REFRACTORY EPILEPSY” (INSERM (INSTITUT NATIONAL DE LA SANTÉ ET DE LA RECHERCHE …, priority 2021, published 2024).

Assays:
[1] = system: spontaneous interictal-like discharges (IIDs) in slices from mTLE patients; test: Multielectrode array recording of postoperative hippocampal-subicular slices from mTLE patients; type: cell-based, human; settings: for effect on proportion of slices displaying IIDs: p<0.05
Method: (§1) For all experiments on hippocampal cultures, neurons were pre-incubated for 2 hours with either DMSO, PCPZ or CLP257 in a CO2 incubator set at 37° C. Drugs were added directly to the culture medium. For electrophysiology experiments, neurons were also recorded in presence of these drugs in the bath. For biochemistry experiments on rat hippocampo-cortical slices, slices were incubated with either DMSO (vehicle), CLP257, PCPZ, WNK463 or sodium orthovanadate for 2 hours in interface chambers set at 37° C. For human tissue experiments, slices were pre-incubated with either DMSO, CLP257 or PCPZ for 2 hours in interface chambers set at 37° C. and then also recorded in presence of these compounds.
Patients or their legal guardians gave informed consent to participate in the study. Patients ([…], 3 males, 4 female, age range: 16-54 years) diagnosed with mesial temporal lobe epilepsy with hippocampal sclerosis underwent multimodal preoperative neurological, neurophyschological and psychiatric evaluations as well as video-electroencephalographic recording, magnetic resonance imaging and fluorodeooxyglugose positron emission tomography. Cortectomies were performed at Sainte-Anne Hospital by neurosurgeons B. Devaux and B. Turak and at Pitié-Salpêtriére Hospital by neurosurgeons S. Clemenceau and B. Mathon. Cortical specimens collected in the operating room were immediately transported in ice-cold (0-4° C.), oxygenated solution (O2/CO2 95/5%), containing (in mM): N-methyl-d-glucamine 93, KCl 2.5, NaH2PO4 1.2, NaHCO3 30, HEPES 20, D-glucose 20, ascorbic acid 5, sodium pyruvate 3, MgSO4 10 and CaCl2 0.5 (300-310 mOsm, pH7.4) and transported within 15 minutes to the laboratory. Transverse hippocampal-subicular slices (400 m thick) were prepared in the same solution using a vibratome (HM650V, Microm). They were maintained for 20-30 minutes at 37° C. and then at room temperature in an interface chamber containing artificial cerebrospinal fluid (ACSF) composed of (in mM): D-glucose 10, KCl 3.5, NaHOC3 26, NaH2PO4 1.25, NaCl 126, CaCl2 1.6 and MgCl2 1.2 (290 mOsm), equilibrated with 5% CO2 in 95% 02.
Multielectrode array recordings were performed using a MEA2100 station (Multi Channel Systems) equipped with a 120-microelectrode array chamber (custom 12×10 layout, 30 μm TiN electrodes spaced 1 mm vertical and 1.5 mm horizontal). Slices were maintained in the recording chamber using a home-made platinum-nylon harp and superfused with pre-warmed (37° C.) oxygenated ACSF at a rate of 6 ml/min. Slices were imaged using a video-microscope table (MEA-VMT1, Multi Channel Systems) in order to register the location of electrodes with respect to the slice. Extracellular signals were acquired at a sampling rate of 10 kHz using Multi Channel Experimenter (Multi Channel Systems) and analyzed offline using homemade software (Matlab, The Mathworks).

KCC2 = test: Surface biotinylation and immunoblot of KCC2 in hippocampal cultures; type: cell-based, rat; settings: for effect on total KCC2 expression: hippocampal cultures
Method: Primary cultures of hippocampal neurons were prepared as previously described. Briefly, hippocampi were dissected from embryonic day 18-19 Sprague-Dawley rats of either sex. Tissue was then trypsinized (0.25% v/v), and mechanically dissociated in 1×HBSS (Invitrogen) containing 10 mM HEPES. Neurons were plated at a density of 120×10^3 cells/ml onto 18-mm diameter glass coverslips (Assistent) pre-coated with 50 μg/ml poly-D,L-ornithine (Sigma-Aldrich) in plating medium composed of Minimum Essential Medium (MEM, Sigma-Aldrich) supplemented with horse serum (10% v/v, Invitrogen), L-glutamine (2 mM) and Na+ pyruvate (1 mM) (Invitrogen). After attachment for 3-4 h, cells were incubated in culture medium composed of Neurobasal medium supplemented with B27 (1×), L-glutamine (2 mM), and antibiotics (penicillin 200 units/ml, streptomycin, 200 μg/ml; Invitrogen) for up to 4 weeks at 37° C. in a 5% CO2 humidified incubator. Each week, one fifth of the culture medium volume was renewed.
as §1
Neurons were washed with ice-cold PBS three times, and then incubated with PBS supplemented with 0.5-1 mg/ml EZ-Link Sulfo-NHS-SS-Biotin (Pierce, Rockford, IL, USA) at 4° C. for 30 min under gentle agitation. Biotinylation was stopped by addition of Tris-HCl (50 mM; pH 7.4) and cells lysed in a modified RIPA buffer containing (in mM): Tris-HCl 50 (pH 7.4), NaCl 150, 1% Nonidet P-40, 0.5% DOC, 0.1% SDS, NaF 50, Na3VO4 1 and protease and phosphatase inhibitors (Roche). Lysates were then collected by gently scraping the bottom of each well. After complete homogenization, samples were centrifuged and the supernatant was collected. A small fraction of the lysates was kept for input KCC2 and total protein quantification using BCA kit (Thermo Scientific). Lysates were mixed with a 50% slurry of Neutravidin beads (Thermo Scientific) and rotated overnight at 4° C. […]
Samples were subjected to electrophoresis on polyacrylamide gradient gels (4-12%) and transferred to nitrocellulose membranes. […] Fluorescence was detected using Odyssey infrared imaging system (LI-COR Bioscience). […]

[2] = 100 μM CLP257, 2 h, slices from 5 out of 6 patients
[3] = 100 μM CLP257, 2 h, slices from the remaining patient

Row | SMILES | patients whose slices showed reduced IID frequency ([1]; 100 μM CLP257, 2 h) | change of IID amplitude [1, 2] | reduction of IID frequency [1, 2] | change of IID amplitude [1, 3] | change of IID frequency [1, 3] | effect on proportion of slices displaying IIDs ([1]; 100 μM CLP257, 2 h incubation vs DMSO) | effect on total KCC2 expression (KCC2; 100 μM CLP257, 2 h, p=0.893) | effect on ratio of surface to total KCC2 expression (KCC2; 100 μM CLP257, 2 h, p=0.8) | mTLE patients whose slices showed suppressed IIDs ([1]; 10 μM PCPZ, 2 h) | change of IID amplitude ([1]; 10 μM PCPZ, 2 h, group I (5 mTLE patients)) | reduction of IID frequency ([1]; 10 μM PCPZ, 2 h, group I (5 mTLE patients, responders)) | change of IID amplitude ([1]; 10 μM PCPZ, 2 h, group II (2 patients)) | change of IID frequency ([1]; 10 μM PCPZ, 2 h, group II (2 patients, non-responders)) | effect on proportion of slices displaying IIDs ([1]; 10 μM PCPZ, 2 h incubation vs DMSO) | effect on total KCC2 expression (KCC2; 10 μM PCPZ, 2 h, p=0.137) | effect on ratio of surface to total KCC2 expression (KCC2; 10 μM PCPZ, 2 h, p=0.735)
1 | O=C1N=C(N2CCCCN2)S/C1=C\c1ccc(F)cc1O [CLP257, (5Z)-5-[(4-Fluoro-2-hydroxyphenyl)methylene]-2-(tetrahydro-1-(2H)-pyridazinyl)-4(5H)-thiazolone] | 5 out of 6 | +134.4% | 96.5±2.31% | −24.5% | +12.6% | significantly reduced | no effect | no effect |  |  |  |  |  |  |  | 
2 | CN1CCN(CCCN2c3ccccc3Sc3ccc(Cl)cc32)CC1 [PCPZ, prochlorperazine] |  |  |  |  |  |  |  |  | 5 out of 7 | +9.0% | 97.55±13.8% | +18.2±4.8% | +25.5±15.9% | significantly reduced | no effect | no effect
